Source: patent publication US5916904A, “Antimicrobial agent” (Eisai Co., Ltd., priority 1992, dated 1999)
Converted amounts (≈) assume the structure as drawn.

Experiments:
C. pylori EI-930 = assay: MIC by agar dilution method, C. pylori clinical isolate EI-930; type: cell-based; conditions: Helicobacter pylori, EI930, 72 h; EI-930, clinical isolate; in vitro, 37° C., pH 7.0, 3 days, microaerophilic; read-out: antibiotic activity (MIC)
C. pylori EI-46 = assay: MIC by agar dilution method, C. pylori clinical isolate EI-46; type: cell-based; conditions: Helicobacter pylori, EI46, 72 h; EI-46, clinical isolate (resistant); in vitro, 37° C., pH 7.0, 3 days, microaerophilic; read-out: antibiotic activity (MIC)
C. pylori EI-612 = assay: MIC by agar dilution method, C. pylori clinical isolate EI-612; type: cell-based; conditions: Helicobacter pylori, EI612, 72 h; EI-612, clinical isolate; in vitro, 37° C., pH 7.0, 3 days, microaerophilic; read-out: antibiotic activity (MIC)
C. pylori EI-925 = assay: MIC by agar dilution method, C. pylori clinical isolate EI-925; type: cell-based; conditions: Helicobacter pylori, EI925, 72 h; EI-925, clinical isolate; in vitro, 37° C., pH 7.0, 3 days, microaerophilic; read-out: antibiotic activity (MIC)
C. pylori EI-36 = assay: MIC by agar dilution method, C. pylori clinical isolate EI-36; type: cell-based; conditions: Helicobacter pylori, EI36, 72 h; EI-36, clinical isolate; in vitro, 37° C., pH 7.0, 3 days, microaerophilic; read-out: antibiotic activity (MIC)
C. pylori 8005 = conditions: C. pylori 8005, clinical isolate; JP-A 2-209809; cited from earlier work
C. pylori EI-429 = assay: MIC by agar dilution method, C. pylori clinical isolate EI-429; type: cell-based; conditions: Helicobacter pylori, EI429, 72 h; EI-429, clinical isolate; in vitro, 37° C., pH 7.0, 3 days, microaerophilic; read-out: antibiotic activity (MIC)
C. pylori EI-2 = assay: MIC by agar dilution method, C. pylori clinical isolate EI-2; type: cell-based; conditions: Helicobacter pylori, EI2, 72 h; EI-2, clinical isolate; in vitro, 37° C., pH 7.0, 3 days, microaerophilic; read-out: antibiotic activity (MIC)
C. pylori NCTC11916 = assay: MIC by agar dilution method, C. pylori standard strain NCTC11916; type: cell-based; conditions: Helicobacter pylori, 72 h, in vitro, 37° C., pH 7.0, 3 days, microaerophilic, read-out: antibiotic activity (MIC)
C. pylori [1] = conditions: JP-A 2-209809 and JP-A 3-173817; cited from earlier work
C. pylori EI-5 = assay: MIC by agar dilution method, C. pylori clinical isolate EI-5; type: cell-based; conditions: Helicobacter pylori, EI5, 72 h; EI-5, clinical isolate; in vitro, 37° C., pH 7.0, 3 days, microaerophilic; read-out: antibiotic activity (MIC)
C. pylori EI-397 = assay: MIC by agar dilution method, C. pylori clinical isolate EI-397; type: cell-based; conditions: Helicobacter pylori, EI397, 72 h; EI-397, clinical isolate; in vitro, 37° C., pH 7.0, 3 days, microaerophilic; read-out: antibiotic activity (MIC)
C. pylori EI-393 = assay: MIC by agar dilution method, C. pylori clinical isolate EI-393; type: cell-based; conditions: Helicobacter pylori, EI393, 72 h; EI-393, clinical isolate; in vitro, 37° C., pH 7.0, 3 days, microaerophilic; read-out: antibiotic activity (MIC)
C. pylori EI-933 = assay: MIC by agar dilution method, C. pylori clinical isolate EI-933; type: cell-based; conditions: Helicobacter pylori, EI933, 72 h; EI-933, clinical isolate; in vitro, 37° C., pH 7.0, 3 days, microaerophilic; read-out: antibiotic activity (MIC)
C. pylori EI-391 = assay: MIC by agar dilution method, C. pylori clinical isolate EI-391; type: cell-based; conditions: Helicobacter pylori, EI391, 72 h; EI-391, clinical isolate (resistant); in vitro, 37° C., pH 7.0, 3 days, microaerophilic; read-out: antibiotic activity (MIC)
C. pylori EI-467 = assay: MIC by agar dilution method, C. pylori clinical isolate EI-467; type: cell-based; conditions: Helicobacter pylori, EI467, 72 h; EI-467, clinical isolate; in vitro, 37° C., pH 7.0, 3 days, microaerophilic; read-out: antibiotic activity (MIC)
C. pylori NCTC11637 = assay: MIC by agar dilution method, C. pylori standard strain NCTC11637; type: cell-based; conditions: Helicobacter pylori, 72 h, in vitro, 37° C., pH 7.0, 3 days, microaerophilic, read-out: antibiotic activity (MIC)
[2] = Acute Toxicological Test in rats; conditions: rat, in vivo, one time
Experimental: (§1) The compound (I) of the invention was administered Intravenously or orally one time, with a carrier of saline, to Slc:SD rats and Slc:ICR mouse, each being 7 or 8 weeks old, in a group consisting of five males and five females, to determine LD50 values.
(§2) Acute toxicity of the compound (I) is shown in terms of LD50 in unit of mg/kg.

C. pylori [3] = assay: antibiotic activity against C. pylori, overall conclusion; type: cell-based; conditions: compared with antibiotic substances / known compounds
[4] = Acute Toxicological Test in mice; conditions: mouse, in vivo, one time
Experimental: as §1, §2

[5] = system: C. pylori NCTC-11916, NCTC-11637, PCL-56, CPY-0011-1, KS-13, CLO-1 and CLO-6; conditions: standard strains and clinical isolates; JP-A 3-173817; cited from earlier work

Row | SMILES | MIC (C. pylori EI-930) [µg/mL] | MIC (C. pylori EI-46) [µg/mL] | MIC (C. pylori EI-612) [µg/mL] | MIC (C. pylori EI-925) [µg/mL] | MIC (C. pylori EI-36) [µg/mL] | MIC (C. pylori EI-429) [µg/mL] | MIC (C. pylori EI-2) [µg/mL] | MIC (C. pylori NCTC11916) [µg/mL] | MIC (C. pylori EI-5) [µg/mL] | MIC (C. pylori EI-397) [µg/mL] | MIC (C. pylori EI-393) [µg/mL] | MIC (C. pylori EI-933) [µg/mL] | MIC (C. pylori EI-391) [µg/mL] | MIC (C. pylori EI-467) [µg/mL] | MIC (C. pylori NCTC11637) [µg/mL] | further results
1 | COc1ccc2[nH]c([S+]([O-])Cc3ncc(C)c(OC)c3C)nc2c1 (stereo not drawn) [(III), 5-Methoxy-2-[{(4-methoxy-3,5-dimethyl-2-pyridinyl)methyl}sulfinyl]-1H-benzimidazole] | 25 (≈ 72.4 µM) | 25 (≈ 72.4 µM) | 25 (≈ 72.4 µM) | 25 (≈ 72.4 µM) | 25 (≈ 72.4 µM) | 25 (≈ 72.4 µM) | 25 (≈ 72.4 µM) | 25 (≈ 72.4 µM) | 50 (≈ 145 µM) | 50 (≈ 145 µM) | 50 (≈ 145 µM) | 25 (≈ 72.4 µM) | 50 (≈ 145 µM) | 50 (≈ 145 µM) | 50 (≈ 145 µM) | antibiotic activity (C. pylori 8005): has antibiotic activity against C. pylori 8005; antibiotic activity (C. pylori [1]): lacks sufficient antibiotic activity
2 | COCCCOc1ccnc(C[S+]([O-])c2nc3ccccc3[nH]2)c1C (stereo not drawn) [(I), 2-[(4-(3-Methoxypropoxy)-3-methylpyridine-2-yl)-methylsulfinyl]-1H-benzimidazole] | 3.13 (≈ 8.71 µM) | 3.13 (≈ 8.71 µM) | 0.4 (≈ 1.11 µM) | 3.13 (≈ 8.71 µM) | 6.25 (≈ 17.4 µM) | 1.56 (≈ 4.34 µM) | 3.13 (≈ 8.71 µM) | 3.13 (≈ 8.71 µM) | 3.13 (≈ 8.71 µM) | 3.13 (≈ 8.71 µM) | 3.13 (≈ 8.71 µM) | 3.13 (≈ 8.71 µM) | 3.13 (≈ 8.71 µM) | 1.56 (≈ 4.34 µM) | 3.13 (≈ 8.71 µM) | LD50 ([2]; iv, female): 152 mg/kg; LD50 ([2]; iv, male): 157 mg/kg; LD50 ([2]; po, female): 1330 mg/kg; LD50 ([2]; po, male): 1450 mg/kg; C. pylori-eradicating activity (C. pylori [3]): the same C. pylori-eradicating activity as an antibiotic substance; LD50 ([4]; iv, female): 237 mg/kg; LD50 ([4]; iv, male): 220 mg/kg; LD50 ([4]; po, female): 1010 mg/kg; LD50 ([4]; po, male): 1210 mg/kg
3 | Cc1c(OCC(F)(F)C(F)(F)C(F)F)ccnc1CSc1nc2ccccc2[nH]1 [JP-A 3-173817 compound (14), 2-[{3-Methyl-4-(2,2,3,3,4,4-hexafluorobutoxy)pyrid-2-yl}methylthio]-1H-benzimidazole] |  |  |  |  |  |  |  |  |  |  |  |  |  |  |  | antibiotic activity [5]: activity against all the tested strains
4 | CC1COc2c(N3CCN(C)CC3)c(F)cc3c(=O)c(C(=O)O)cn1c23 (stereo not drawn) [(VIII), ofloxacin] | 0.8 (≈ 2.21 µM) | 3.13 (≈ 8.66 µM) | 0.8 (≈ 2.21 µM) | 0.4 (≈ 1.11 µM) | 0.8 (≈ 2.21 µM) | 0.8 (≈ 2.21 µM) | 0.8 (≈ 2.21 µM) | 0.8 (≈ 2.21 µM) | 0.8 (≈ 2.21 µM) | 0.8 (≈ 2.21 µM) | 0.8 (≈ 2.21 µM) | 0.4 (≈ 1.11 µM) | 25 (≈ 69.2 µM) | 0.4 (≈ 1.11 µM) | 0.8 (≈ 2.21 µM) | 
5 | COc1ccc2[nH]c(SCc3ncc(C)c(OC)c3C)nc2c1 [(IV), 5-Methoxy-2-{(4-methoxy-3,5-dimethyl-2-pyridinyl)methylthio}-1H-benzimidazole] | 12.5 (≈ 37.9 µM) | 12.5 (≈ 37.9 µM) | 12.5 (≈ 37.9 µM) | 12.5 (≈ 37.9 µM) | 12.5 (≈ 37.9 µM) | 25 (≈ 75.9 µM) | 25 (≈ 75.9 µM) | 12.5 (≈ 37.9 µM) | 25 (≈ 75.9 µM) | 25 (≈ 75.9 µM) | 25 (≈ 75.9 µM) | 12.5 (≈ 37.9 µM) | 25 (≈ 75.9 µM) | 12.5 (≈ 37.9 µM) | 25 (≈ 75.9 µM) | 
